Experimental findings from US20150274719A1, “AMINO-SUBSTITUTED IMIDAZO[1,2-A]PYRIDINECARBOXAMIDES AND THEIR USE” (BAYER PHARMA AKTIENGESELLSCHAFT, priority 2012, published 2015) are described below.

Where a name gives a salt, the structure may show the parent alone.

In the test the target is T1, recombinant guanylate cyclase reporter cell line (Rattus norvegicus, UniProt P19686+P20595).
T1 construct: expressed in transfected cells; host or cells: recombinant reporter cell line
T1 sequence (P19686 1-690): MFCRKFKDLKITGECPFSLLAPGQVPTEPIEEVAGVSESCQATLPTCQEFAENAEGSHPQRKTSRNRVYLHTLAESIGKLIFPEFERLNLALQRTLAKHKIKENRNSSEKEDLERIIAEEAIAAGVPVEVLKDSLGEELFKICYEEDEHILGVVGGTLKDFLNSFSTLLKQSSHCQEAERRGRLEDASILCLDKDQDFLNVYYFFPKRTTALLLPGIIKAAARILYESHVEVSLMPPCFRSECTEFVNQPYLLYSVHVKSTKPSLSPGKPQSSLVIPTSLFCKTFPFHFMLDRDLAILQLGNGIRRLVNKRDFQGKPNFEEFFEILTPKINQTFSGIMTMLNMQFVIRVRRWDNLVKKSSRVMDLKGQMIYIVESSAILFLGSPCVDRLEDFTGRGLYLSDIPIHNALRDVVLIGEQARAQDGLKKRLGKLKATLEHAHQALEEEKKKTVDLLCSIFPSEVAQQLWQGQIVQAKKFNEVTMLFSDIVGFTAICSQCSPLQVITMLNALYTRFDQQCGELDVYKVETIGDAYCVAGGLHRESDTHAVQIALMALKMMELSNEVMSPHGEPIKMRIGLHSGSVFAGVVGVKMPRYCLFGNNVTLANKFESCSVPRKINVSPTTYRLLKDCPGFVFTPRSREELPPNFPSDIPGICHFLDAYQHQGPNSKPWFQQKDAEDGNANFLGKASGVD
T1 sequence (P20595 1-619): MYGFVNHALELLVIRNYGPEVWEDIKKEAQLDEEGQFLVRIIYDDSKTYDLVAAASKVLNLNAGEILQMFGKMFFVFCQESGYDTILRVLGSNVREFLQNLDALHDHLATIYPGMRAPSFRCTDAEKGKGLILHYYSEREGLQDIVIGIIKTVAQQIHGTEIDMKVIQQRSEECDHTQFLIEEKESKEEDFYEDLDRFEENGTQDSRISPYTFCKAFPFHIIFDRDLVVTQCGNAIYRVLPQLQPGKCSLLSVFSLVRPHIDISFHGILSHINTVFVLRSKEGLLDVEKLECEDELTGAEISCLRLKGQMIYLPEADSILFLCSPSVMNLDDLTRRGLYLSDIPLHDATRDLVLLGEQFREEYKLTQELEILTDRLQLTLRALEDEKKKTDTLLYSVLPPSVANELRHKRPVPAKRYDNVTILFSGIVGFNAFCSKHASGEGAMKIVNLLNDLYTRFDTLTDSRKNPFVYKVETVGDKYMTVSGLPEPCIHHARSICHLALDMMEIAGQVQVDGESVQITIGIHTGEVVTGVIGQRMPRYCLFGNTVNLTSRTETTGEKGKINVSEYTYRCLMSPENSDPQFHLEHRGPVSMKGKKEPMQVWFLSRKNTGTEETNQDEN
The test is described as follows: Action on recombinant guanylate cyclase reporter cell line. It counts as cell-based. To be noted: in some cases mean values from individual determinations. In a few lines: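 MEC values, meaning the lowest concentration producing a detectable response, were taken from a recombinant cyclase reporter cell assay. Where repeated, individual determinations were averaged.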
As for `Cc1cc(OCc2c(F)cccc2F)c2nc(C)c(C(=O)NCCN3CCN(C(C)C)CC3)n2c1` [Example 139, 8-[(2,6-difluorobenzyl)oxy]-N-[2-(4-isopropylpiperazin-1-yl)ethyl]-2,6-dimethylimidazo[1,2-a]pyridine-3-carboxamide], the “MEC (minimal effective concentration)” value was 1.00 µM.
Take `Cc1cc(OCc2c(F)cccc2F)c2nc(C)c(C(=O)NCC(N)c3cnn(C)c3)n2c1` (racemic) [Example 370, rac-N-[2-amino-2-(1-methyl-1H-pyrazol-4-yl)ethyl]-8-[(2,6-difluorobenzyl)oxy]-2,6-dimethylimidazo[1,2-a]pyridine-3-carboxamide]: the “MEC (minimal effective concentration)” value worked out at 3.00 µM.
The result for `Cc1cc(OCc2c(F)cccc2F)c2nc(C)c(C(=O)NC(CN)c3cnn(C)c3)n2c1` (racemic) [Example 387, rac-N-[2-amino-1-(1-methyl-1H-pyrazol-4-yl)ethyl]-8-[(2,6-difluorobenzyl)oxy]-2,6-dimethylimidazo[1,2-a]pyridine-3-carboxamide] reads 10.0 µM; that for `Cc1nc2c(OCc3c(F)cccc3F)cccn2c1C(=O)NC(CNCC(F)(F)F)c1ccc(F)c(F)c1` (single isomer, unassigned; ent-8) [Example 222, ent-8-[(2,6-Difluorobenzyl)oxy]-N-{1-(3,4-difluorophenyl)-2-[(2,2,2-trifluoroethyl)amino]ethyl}-2-methylimidazo[1,2-a]pyridine-3-carboxamide], 0.30 µM.
The result for `Cc1nc2c(OCc3c(F)cccc3F)cc(Cl)cn2c1C(=O)NCC(C)(N)CC(C)C` (single isomer, unassigned) [Example 227, ent-N-(2-Amino-2,4-dimethylpentyl)-6-chloro-8-[(2,6-difluorobenzyl)oxy]-2-methylimidazo[1,2-a]pyridine-3-carboxamide] reads 0.30 µM; that for `Cc1nc2c(OCc3c(F)cccc3F)cccn2c1C(=O)NC12CNCCC1C2` (racemic) [Example 125, rac-N-(3-Azabicyclo[4.1.0]hept-1-yl)-8-[(2,6-difluorobenzyl)oxy]-2-methylimidazo[1,2-a]-pyridine-3-carboxamide], 1.00 µM.
The result for `Cc1cc(OCc2c(F)cccc2F)c2nc(C)c(C(=O)NCC3CN(Cc4ccccc4)CCO3)n2c1` (racemic) [Example 344, rac-N-[(4-benzylmorpholin-2-yl)methyl]-8-[(2,6-difluorobenzyl)oxy]-2,6-dimethylimidazo[1,2-a]pyridine-3-carboxamide] reads 1.00 µM; that for `Cc1nc2c(OCc3c(F)cccc3F)cc(Cl)cn2c1C(=O)NCC1(N)CCCC1` [Example 42, N-[(1-aminocyclopentyl)methyl]-6-chloro-8-[(2,6-difluorobenzyl)oxy]-2-methylimidazo[1,2-a]pyridine-3-carboxamide], 1.00 µM; that for `Cc1cc(OCc2c(F)cccc2F)c2nc(C)c(C(=O)NCC(N)C#N)n2c1` (racemic) [Example 400, rac-N-(2-amino-2-cyanoethyl)-8-[(2,6-difluorobenzyl)oxy]-2,6-dimethylimidazo[1,2-a]pyridine-3-carboxamide], 0.65 µM.
As for `Cc1nc2c(OCc3c(F)cccc3F)cc(Cl)cn2c1C(=O)NCC(C)(C)N1CCCC1` [Example 148, 6-chloro-8-[(2,6-difluorobenzyl)oxy]-2-methyl-N-[2-methyl-2-(pyrrolidin-1-yl)-propyl]imidazo[1,2-a]pyridine-3-carboxamide], the “MEC (minimal effective concentration)” value is 1.00 µM.
The result for `Cc1nc2c(OCc3c(F)cccc3F)cc(Cl)cn2c1C(=O)NC(C)(C)CN` [Example 24, N-(1-amino-2-methylpropan-2-yl)-6-chloro-8-[(2,6-difluorobenzyl)oxy]-2-methylimidazo[1,2-a]pyridine-3-carboxamide] reads 0.65 µM; that for `Cc1nc2c(OCc3c(F)cccc3F)cccn2c1C(=O)NC(CN)CC(C(F)(F)F)C(F)(F)F` (racemic) [Example 5, rac-N-[1-amino-5,5,5-trifluoro-4-(trifluoromethyl)pentan-2-yl]-8-[(2,6-difluorobenzyl)oxy]-2-methylimidazo[1,2-a]-pyridine-3-carboxamide trifluoroacetate], 1.00 µM; that for `Cc1cc(OCc2c(F)cccc2F)c2nc(C)c(C(=O)NC[C@@H]3CCCCN3)n2c1` [Example 172, 8-[(2,6-Difluorobenzyl)oxy]-2,6-dimethyl-N-[(2S)-piperidin-2-ylmethyl]imidazo[1,2-a]pyridine-3-carboxamide], 0.30 µM.
The result for `Cc1nc2c(OCc3c(F)cccc3F)cccn2c1C(=O)NCC(C)(N)CCOCc1ccccc1` (single isomer, unassigned; enantiomer b) [Example 267, ent-N-[2-Amino-4-(benzyloxy)-2-methylbutyl]-8-[(2,6-difluorobenzyl)oxy]-2-methylimidazo[1,2-a]pyridine-3-carboxamide (Enantiomer B)] reads 0.10 µM; that for `Cc1nc2c(OCc3c(F)cccc3F)cccn2c1C(=O)NC1CCNc2ccccc21` (single isomer, unassigned; ent-8) [Example 52, ent-8-[(2,6-Difluorobenzyl)oxy]-2-methyl-N-(1,2,3,4-tetrahydroquinolin-4-yl)imidazo[1,2-a]-pyridine-3-carboxamide], 0.03 µM.
Consider `Cc1cc(OCc2c(F)cccc2F)c2nc(C)c(C(=O)NCC(N)c3cccc(OC(F)F)c3)n2c1` (racemic) [Example 375, rac-N-{2-amino-2-[3-(difluoromethoxy)phenyl]ethyl}-8-[(2,6-difluorobenzyl)oxy]-2,6-dimethylimidazo[1,2-a]pyridine-3-carboxamide], for which the “MEC (minimal effective concentration)” value was 3.00 µM.
The result for `Cc1nc2c(OCc3c(F)cccc3F)cccn2c1C(=O)NC(CN)COc1ccc(F)cc1` (racemic) [Example 58, rac-N-[1-amino-3-(4-fluorophenoxy)propan-2-yl]-8-[(2,6-difluorobenzyl)oxy]-2-methylimidazo[1,2-a]pyridine-3-carboxamide] reads 1.00 µM; that for `Cc1cc(OCc2c(F)cccc2F)c2nc(C)c(C(=O)NC3(C)CCC3(C)N)n2c1` (racemic) [Example 335, rac-N-[2-amino-1,2-dimethylcyclobutyl]-8-[(2,6-difluorobenzyl)oxy]-2,6-dimethylimidazo[1,2-a]pyridine-3-carboxamide], 0.30 µM; that for `Cc1nc2c(OCc3c(F)cccc3F)cccn2c1C(=O)NCCNc1ccc(F)cc1` [Example 79, 8-[(2,6-difluorobenzyl)oxy]-N-{2-[(4-fluoro-phenyl)amino]ethyl}-2-methylimidazo[1,2-a]-pyridine-3-carboxamide], 1.00 µM.
The result for `COCC(C)(N)CNC(=O)c1c(C)nc2c(OCc3c(F)cccc3F)cc(Cl)cn12` (racemic) [Example 159, rac-N-(2-amino-3-methoxy-2-methylpropyl)-6-chloro-8-[(2,6-difluorobenzyl)oxy]-2-methylimidazo[1,2-a]pyridine-3-carboxamide] reads 0.30 µM; that for `Cc1nc2c(OCc3c(F)cccc3F)cccn2c1C(=O)NC(CN)c1ccc(Cl)cc1` (single isomer, unassigned; enantiomer b) [Example 15, ent-N-[2-Amino-1-(4-chlorophenyl)ethyl]-8-[(2,6-difluorobenzyl)oxy]-2-methylimidazo[1,2-a]-pyridine-3-carboxamide (Enantiomer B)], 0.53 µM.
The result for `Cc1nc2c(OCc3c(F)cccc3F)cccn2c1C(=O)NC(C)CN` (single isomer, unassigned) [Example 19, ent-N-(1-Aminopropan-2-yl)-8-[(2,6-difluorobenzyl)oxy]-2-methylimidazo[1,2-a]pyridine-3-carboxamide] reads 1.66 µM.
